Measured values as given in the NIST ThermoML archive (doi:10.1016/j.fluid.2017.05.024).
± gives the expanded uncertainty stated by the source.

Assays:
[1] = 298.15 K, Liquid
[2] = xn = mol fraction of the nth substance listed; conditions: 298.15 K, 100 kPa, Liquid, Vibrating tube method

## OCCO [1,2-ethanediol]
[1]; 100 kPa, Vibrating tube method
  mass density: 1112.1 ± 1.4 kg/m3

## OCCO [1,2-ethanediol] + CCCC[N+](CCCC)(CCCC)CCCC.[Br-]
[2]; x2 = 0
  mass density: 1112.1 ± 1.4 kg/m3

## c1c[nH]cn1 [1H-imidazole] + CCCC[N+](CCCC)(CCCC)CCCC.[Br-]
[2]; x2 = 0.333
  mass density: 1092.2 ± 1 kg/m3

## OCC(O)CO [glycerol]
[1]; 101.33 kPa, Pycnometric method
  mass density: 1262 ± 2 kg/m3

## CCCC[N+](CCCC)(CCCC)CCCC.[Br-] [tetrabutylammonium bromide] + OCC(O)CO
[2]; x1 = 0.2
  mass density: 1137.1 ± 1.3 kg/m3

## CCCC[N+](CCCC)(CCCC)CCCC.[Br-] [tetrabutylammonium bromide] + OCCO
[2]; x1 = 0.2
  mass density: 1069.1 ± 1.2 kg/m3
